From BindingDB's records for doi:10.1016/j.bmcl.2019.06.049 (Dongguk University, 2019) come the findings set out here.

This experiment addresses T1, Nuclear factor erythroid 2-related factor 2 (Homo sapiens, UniProt Q16236).
T1 sequence (Q16236 whole entry): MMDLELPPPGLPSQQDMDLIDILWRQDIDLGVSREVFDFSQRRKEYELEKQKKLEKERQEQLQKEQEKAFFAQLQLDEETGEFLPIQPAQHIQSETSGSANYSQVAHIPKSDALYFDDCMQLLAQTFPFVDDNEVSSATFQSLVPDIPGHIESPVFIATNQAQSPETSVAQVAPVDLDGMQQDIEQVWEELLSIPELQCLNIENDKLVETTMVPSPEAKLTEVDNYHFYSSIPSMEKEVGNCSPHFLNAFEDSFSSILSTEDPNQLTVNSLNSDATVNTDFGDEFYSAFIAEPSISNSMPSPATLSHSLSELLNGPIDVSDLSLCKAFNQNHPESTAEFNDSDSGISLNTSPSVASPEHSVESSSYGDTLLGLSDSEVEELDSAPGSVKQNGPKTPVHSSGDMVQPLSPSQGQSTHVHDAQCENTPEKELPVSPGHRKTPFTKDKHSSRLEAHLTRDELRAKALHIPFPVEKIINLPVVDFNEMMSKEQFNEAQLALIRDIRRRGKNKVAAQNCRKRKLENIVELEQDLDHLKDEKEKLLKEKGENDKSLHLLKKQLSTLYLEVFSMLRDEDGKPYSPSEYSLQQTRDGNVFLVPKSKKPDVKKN
Put plainly: Inhibition of NRF2 in human MDA-MB-231 cells harboring ARE-GFP-Luc assessed as reduction in ARE-luciferase activity after 16 hrs by firefly luciferase reporter gene assay. (In general: In a reporter assay the amount or activity of a reporter protein is the signal.)

For the compound `COC(=O)[C@@]12OC[C@]34[C@H]([C@@H](O)[C@@H]1O)[C@@]1(C)CC(=O)C(O)=C(C)[C@@H]1C[C@H]3OC(=O)[C@H](OC(=O)C=C(C)C)[C@@H]24`, the IC50 was 29 nM.

The IC50 is the midpoint of a concentration-inhibition curve.
